What was measured:
Type in all cases: physicochemical
[1] = Extrusion force of HA-based gel after autoclaving; details: ΔF vs HA gel without the added ingredients
From the text: Stability of a hydrogel composition disclosed herein can be determined by subjecting a hydrogel composition to a heat treatment, such as, e.g., steam sterilization at normal pressure or under pressure (e.g., autoclaving). […] Substantial stability of a hydrogel composition disclosed herein can be evaluated 1) by determining the change in the extrusion force (ΔF) of a hydrogel composition disclosed herein after sterilization, where the change in extrusion force less 2N is indicative of a substantially stable hydrogel composition as measured by (the extrusion force of a hydrogel composition with the specified additives) minus (the extrusion force of the a hydrogel composition without the added additives); and/or 2) by determining the change in rheological properties of a hydrogel composition disclosed herein after sterilization, where the change in tan δ 1 Hz of less than 0.1 is indicative of a substantially stable hydrogel composition as measured by (tan δ 1 Hz of gel formulation with additives) minus (tan δ 1 Hz of gel formulation without additives). As such, a substantially stable hydrogel composition disclosed herein retains one or more of the following characteristics after sterilization: homogeneousness, extrusion force, cohesiveness, hyaluronan concentration, agent(s) concentration, osmolarity, pH, or other rheological characteristics desired by the hydrogel before the heat treatment.
(§1) The hydrogel properties, aspect (i.e., color/clarity/homogeneity), and extrusion force were analyzed after autoclaving and at 3 years equivalent at room temperature.

[2] = Extrusion force of HA-based gel at 3 years equivalent at room temperature
Description: as §1

[3] = Aspect (color/clarity/homogeneity) of HA-based gel after autoclaving; details: for Aspect: after autoclaving and at 3 years equivalent at room temperature
Description: The active ingredient was incorporated into a HA-based gel matrix and autoclaved by steam sterilization at a temperature between about 130 °C to about 135 °C for between about one minute and about 10 minutes. The hydrogel properties, aspect (i.e., color/clarity/homogeneity), and extrusion force were analyzed after autoclaving and at 3 years equivalent at room temperature. All formulations were clear, homogenous, uncolored, and had acceptable extrusion force properties after autoclaving and at the 3-year equivalent mark (Table 3).
Ascorbic acid, at a concentration of 1% (w/w) was, incorporated in a HA-based gel matrix, and the pH of the gel adjusted to about 7 and then autoclaved by steam sterilization at a temperature between about 130 °C to about 135 °C for between about one minute and about 10 minutes.

[4] = as above
[5] = Oxidation testing: degradation by free radicals (H2O2) on a rheometer; details: gel with AA2G and lidocaine versus gel with lidocaine
From the text: The effect of ascorbic acid 2-glucoside (AA2G™) on HA-based gel matrix oxidative degradation was studied. Oxidation testing was used as it allows testing of the resistance of a HA-based gel matrix to free radicals. Degradation by free radicals was simulated on a rheometer (Haake Rheostress 600) by addition of 1/7 ratio of H2O2 30% on the surface of a spread gel measured with a controlled stress rheometer according to the following method: frequency of 1 Hz with 0.8% controlled strain, during 3600 s at 35 °C. The time value is taken at 5 Pa/s.

[6] = ingredient at 0.3 % in HA-based gel matrix
[7] = ingredient at 0.5 % in HA-based gel matrix
[8] = ingredient at 1 % in HA-based gel matrix

NC(=O)NC1NC(=O)NC1=O (stereo not drawn) [Allantoin]
Extrusion force (N) after autoclaving [1, 6]: PASSED (the change of extrusion force (ΔF) was less than two Newtons (< 2 N))
Extrusion force (N) after autoclaving [1, 7]: PASSED (the change of extrusion force (ΔF) was less than two Newtons (< 2 N))
Extrusion force (N) 3 years ∼ room T °C [2, 6]: PASSED (the change of extrusion force (ΔF) was less than two Newtons (< 2 N))
Extrusion force (N) 3 years ∼ room T °C [2, 7]: PASSED (the change of extrusion force (ΔF) was less than two Newtons (< 2 N))

Cc1cc(=O)n(-c2ccccc2)n1C [Antipyrin, reference compound]
Extrusion force (N) after autoclaving [1, 7]: PASSED (the change of extrusion force (ΔF) was less than two Newtons (< 2 N))
Extrusion force (N) after autoclaving [1, 8]: PASSED (the change of extrusion force (ΔF) was less than two Newtons (< 2 N))
Extrusion force (N) 3 years ∼ room T °C [2, 7]: PASSED (the change of extrusion force (ΔF) was less than two Newtons (< 2 N))
Extrusion force (N) 3 years ∼ room T °C [2, 8]: PASSED (the change of extrusion force (ΔF) was less than two Newtons (< 2 N))
Aspect [3, 7]: Clear Homogeneous Uncolored
Aspect [3, 8]: Clear Homogeneous Uncolored

O=C1O[C@H]([C@@H](O)CO)C(O)=C1O[C@H]1O[C@H](CO)[C@@H](O)[C@H](O)[C@H]1O [Ascorbic acid 2-Glucoside]
aspect of gel after autoclaving ([4]; 0.6% (w/w), 1% (w/w), or 2% (w/w) AA2G in HA-based gel matrix, pH about 7, same before autoclaving): clear and uncolored
protected against oxidative degradation by a factor [5]: 3

O=C1O[C@H]([C@@H](O)CO)C(O)=C1O [Ascorbic acid, (5R)-[(1S)-1,2-dihydroxyethyl]-3,4-dihydroxyfuran-2(5H)-one]
aspect of gel after autoclaving ([3]; 1% (w/w) in HA-based gel matrix, pH about 7, clear and uncolored before autoclaving): clear but yellowed

Nc1ccn([C@@H]2O[C@H](CO)[C@@H](O)[C@H]2O)c(=O)n1 [Cytidine]
Extrusion force (N) after autoclaving [1, 7]: PASSED (the change of extrusion force (ΔF) was less than two Newtons (< 2 N))
Extrusion force (N) after autoclaving [1, 8]: PASSED (the change of extrusion force (ΔF) was less than two Newtons (< 2 N))
Extrusion force (N) 3 years ∼ room T °C [2, 7]: PASSED (the change of extrusion force (ΔF) was less than two Newtons (< 2 N))
Extrusion force (N) 3 years ∼ room T °C [2, 8]: PASSED (the change of extrusion force (ΔF) was less than two Newtons (< 2 N))

CC(C)(CO)[C@@H](O)C(=O)NCCCO [Dexpanthenol]
aspect of gel after autoclaving ([4]; 1% (w/w) in HA-based gel matrix comprising 0.3% (w/w) lidocaine, same before autoclaving): clear and uncolored

CNC[C@H](O)c1ccc(O)c(O)c1 [Epinephrine bitartrate]
aspect of gel after autoclaving ([4]; 10 ppm in HA-based gel matrix comprising 0.3% (w/w) lidocaine, clear and uncolored before autoclaving): clear but colored
aspect of gel after autoclaving ([4]; 10 ppm in HA-based gel matrix, same before autoclaving): clear and uncolored
aspect of gel after autoclaving ([4]; 20 ppm in HA-based gel matrix comprising 0.3% (w/w) lidocaine and 4.5% (w/w) mannitol, clear and uncolored before autoclaving): slightly colored

CNC[C@H](O)c1ccc(O)c(O)c1 [Epinephrine, (R)-4-(1-hydroxy-2-(methylamino)ethyl)benzene-1,2-diol]
aspect of gel after autoclaving ([4]; 10 ppm in HA-based gel matrix with 0.9% (w/w) mannitol): slightly colored
aspect of gel after autoclaving ([4]; 10 ppm in HA-based gel matrix with 4.5% (w/w) mannitol, same before autoclaving): clear and uncolored

CC12CCC(CC1)C(C)(C)O2 [Eucalyptol]
Extrusion force (N) after autoclaving [1, 7]: PASSED (the change of extrusion force (ΔF) was less than two Newtons (< 2 N))
Extrusion force (N) 3 years ∼ room T °C [2, 7]: PASSED (the change of extrusion force (ΔF) was less than two Newtons (< 2 N))

OCC(O)CO [Glycerin]
Extrusion force (N) after autoclaving [1, 7]: PASSED (the change of extrusion force (ΔF) was less than two Newtons (< 2 N))
Extrusion force (N) 3 years ∼ room T °C [2, 7]: PASSED (the change of extrusion force (ΔF) was less than two Newtons (< 2 N))

O=C1O[C@H]([C@@H](O)CO)C([O-])=C1OP(=O)([O-])[O-].O=C1O[C@H]([C@@H](O)CO)C([O-])=C1OP(=O)([O-])[O-].[Mg+2].[Mg+2].[Mg+2] [Magnesium Ascorbyl Phosphate]
aspect of gel after autoclaving ([4]; 0.6% (w/w), 1% (w/w) or 2% (w/w) MAP in HA-based gel matrix, pH about 7, same before autoclaving): clear and uncolored

c1ccc2c(CC3=NCCN3)cccc2c1 [Naphazoline, 2-(1-naphthylmethyl)-2-imidazoline]
aspect of gel after autoclaving ([4]; 100 ppm naphazoline in HA-based gel matrix comprising 0.3% (w/w) lidocaine, same before autoclaving): clear and uncolored

CNC[C@H](O)c1cccc(O)c1 [Phenylephrine, (R)-3-[-1-hydroxy-2-(methylamino)ethyl]phenol]
aspect of gels after autoclaving ([4]; 100 ppm or 400ppm phenylephrine in HA-based gel matrixes comprising 0.3% (w/w) lidocaine, same before autoclaving): clear and uncolored

O=C1O[C@H]([C@@H](O)CO)C([O-])=C1OP(=O)([O-])[O-].[Na+].[Na+].[Na+] [Sodium Ascorbyl Phosphate]
aspect of gel after autoclaving ([4]; 0.6% (w/w), 1% (w/w), or 2% (w/w) SAP in HA-based gel matrix, pH about 7, same before autoclaving): clear and uncolored

Cc1c(C)c2c(c(C)c1OP(=O)([O-])[O-])CCC(C)(CCCC(C)CCCC(C)CCCC(C)C)O2.[Na+].[Na+] (stereo not drawn) [Sodium Tocopheryl Phosphate]
aspect of gel after autoclaving ([4]; 0.4% (w/w) or 1.2% (w/w) in HA-based gel matrix): unclear and white

CNCC(O)c1ccc(O)cc1 (stereo not drawn) [Synephrine, 4-[1-hydroxy-2-(methylamino)ethyl]phenol]
aspect of gel after autoclaving ([4]; 100 ppm synephrine in HA-based gel matrix comprising 0.3% (w/w) lidocaine, same before autoclaving): clear and uncolored

Cc1cn([C@H]2C[C@H](O)[C@@H](CO)O2)c(=O)[nH]c1=O [Thymidine]
Extrusion force (N) after autoclaving [1, 7]: PASSED (the change of extrusion force (ΔF) was less than two Newtons (< 2 N))
Extrusion force (N) after autoclaving [1, 8]: PASSED (the change of extrusion force (ΔF) was less than two Newtons (< 2 N))
Extrusion force (N) 3 years ∼ room T °C [2, 7]: PASSED (the change of extrusion force (ΔF) was less than two Newtons (< 2 N))
Extrusion force (N) 3 years ∼ room T °C [2, 8]: PASSED (the change of extrusion force (ΔF) was less than two Newtons (< 2 N))

CC(=O)Oc1c(C)c(C)c2c(c1C)CCC(C)(CCC[C@H](C)CCC[C@H](C)CCCC(C)C)O2 (stereo partly drawn) [Tocopheryl Acetate]
aspect of gel after autoclaving ([4]; 0.5% (w/w) or 1.2% (w/w) in HA-based gel matrix): unclear and white

NC[C@H]1CC[C@H](C(=O)O)CC1 [Tranexamic acid, reference compound]
Extrusion force (N) after autoclaving [1, 7]: PASSED (the change of extrusion force (ΔF) was less than two Newtons (< 2 N))
Extrusion force (N) 3 years ∼ room T °C [2, 7]: PASSED (the change of extrusion force (ΔF) was less than two Newtons (< 2 N))
aspect of gel after autoclaving ([4]; 0.4% (w/w) tranexamic acid in HA-based gel matrix comprising 0.3% (w/w) lidocaine, same before autoclaving): clear and uncolored

O=c1ccn([C@@H]2O[C@H](CO)[C@@H](O)[C@H]2O)c(=O)[nH]1 [Uridine]
Extrusion force (N) after autoclaving [1, 7]: PASSED (the change of extrusion force (ΔF) was less than two Newtons (< 2 N))
Extrusion force (N) after autoclaving [1, 8]: PASSED (the change of extrusion force (ΔF) was less than two Newtons (< 2 N))
Extrusion force (N) 3 years ∼ room T °C [2, 7]: PASSED (the change of extrusion force (ΔF) was less than two Newtons (< 2 N))
Extrusion force (N) 3 years ∼ room T °C [2, 8]: PASSED (the change of extrusion force (ΔF) was less than two Newtons (< 2 N))
Aspect [3, 7]: Clear Homogeneous Uncolored
Aspect [3, 8]: Clear Homogeneous Uncolored

Polyoxyethanyl-α-tocopheryl sebacate
aspect of gel after autoclaving ([4]; 0.7% (w/w) in HA-based gel matrix): clear, but heterogeneous
